In patent US12673954B2 (BRISTOL-MYERS SQUIBB COMPANY, priority 2021, dated 2026):
Like-named read-outs stand apart in the source and are kept apart here.

What was measured:
[1] = tested on: IRF pathway, THP1-Dual™ cells; assay: STING reporter assay in THP1-Dual cells, IRF pathway (Lucia luciferase, QUANTI-Luc); format: cell-based, human; conditions: read-out: IRF (EC50 μM)
Source text: (§1) THP1-Dual™ cells were derived from the human THP-1 monocyte cell line by stable integration of two inducible reporter constructs. To this end, THP1-Dual™ cells allow the simultaneous study of the NF-κB pathway, by monitoring the activity of SEAP, and the IRF pathway by assessing the activity of a secreted luciferase (Lucia). Both reporter proteins are readily measurable in the cell culture supernatant when using QUANTI-Blue™, a SEAP detection reagent, and QUANTI-Luc™, a luciferase detection reagent.
(§2) THP1-Dual™ cells induce the activation of NF-κB in response to STING agonists. They also trigger the IRF pathway upon stimulation with STING agonists, such as cGAMP. Here, the THP-1-Dual cells were used to assess STING specific binders for function on the cellular level.
(§3) Serial dilutions of compounds in DMSO were added to low volume 384 well plates at 100 nl/well using an ECHO acoustic dispenser (Labcyte, model 550) to achieve final starting concentration of 100 μM in cell suspension. […] One column of the plate was reserved for treatment with cGAMP at 100 μM for 100% activation calculation and one column for no treatment (DMSO only) for baseline activation. Plates were then incubated in 37° C. incubator at 5% CO2 for 20 hours.
(§4) Plates were read on the Envision (Perkin Elmer) at 620 nm wavelength (OD620). In the luciferase assay, 5 μl of Quantiluc (Invivogen, Rep-qlc2) is added to white 384 well plates seeded with THP1 cells and read at 5 minutes on the Envision (Perkin Elmer) using a luminescence protocol (RLU). 100% activation was determined by value (RLU) of THP-1 Dual STING cells stimulated with 100 μM cGAMP (Invivogen, cat #TLRL-NACGA23-5).

[2] = tested on: NF-κB pathway, THP1-Dual™ cells; assay: STING reporter assay in THP1-Dual cells, NF-κB pathway (SEAP, QUANTI-Blue); format: cell-based, human; conditions: read-out: NFkB (EC50 μM)
Source text: as §1, §2, §3, §4

[3] = Homo sapiens, THP1-Dual, 20 h, THP1-Dual cells, 10% human plasma, 20 hours, Lucia luciferase, 100% activation = 100 μM cGAMP
[4] = Homo sapiens, THP1-Dual, 20 h, THP1-Dual cells, 10% human plasma, 20 hours, SEAP, 100% activation = 100 μM cGAMP
[5] = THP1-Dual cells, 10% human plasma, 20 hours, Lucia luciferase, 100% activation = 100 μM cGAMP
[6] = THP1-Dual cells, 10% human plasma, 20 hours, SEAP, 100% activation = 100 μM cGAMP

Structure (SMILES) | EC50 [1, 3] | EC50 [2, 4] | also measured
C[Si](C)(C)CCSC(=O)c1cc(F)cc2c(Cl)c(CNC(=O)c3cnn4cccnc34)oc12 [EXAMPLE 392, S-(2-(Trimethylsilyl)ethyl) 3-chloro-5-fluoro-2-((pyrazolo[1,5-a]pyrimidine-3-carboxamido)methyl)benzofuran-7-carbothioate] | – | – | EC50 ([1]; Homo sapiens, THP1-Dual, 20 h): 3.4 µM; EC50 ([2]; Homo sapiens, THP1-Dual, 20 h): 2.7 µM
Cc1cc(CC(=O)O[C@H](C)C(F)(F)F)c2oc(CNC(=O)c3cnn4cccnc34)cc2c1 [EXAMPLE 279, (R)-1,1,1-Trifluoropropan-2-yl 2-(5-methyl-2-((pyrazolo[1,5-a]pyrimidine-3-carboxamido)methyl)benzofuran-7-yl)acetate] | 35 µM | 25 µM | –
COC(=O)c1ccc(C)c2cc(Cn3cnc4ccncc4c3=O)oc12 [EXAMPLE 29, Methyl 4-methyl-2-((4-oxopyrido[4,3-d]pyrimidin-3(4H)-yl)methyl)benzofuran-7-carboxylate] | 3 µM | 2.9 µM | –
COC(=O)c1cc(C)cc2cc(CNC(=O)c3cnn4cc(C)cnc34)oc12 [Example 90, Methyl 5-methyl-2-((6-methylpyrazolo[1,5-a]pyrimidine-3-carboxamido)methyl)benzofuran-7-carboxylate] | 2.2 µM | 3 µM | –
CSC(=O)c1cc(F)cc2cc(CNC(=O)c3cnc4cccnn34)oc12 [EXAMPLE 383, S-Methyl 5-fluoro-2-((imidazo[1,2-b]pyridazine-3-carboxamido)methyl)benzofuran-7-carbothioate] | 0.92 µM | 1.1 µM | –
CCOC(=O)c1cccc2cc(CN3Cc4ccncc4C3=O)oc12 [EXAMPLE 203, Ethyl 2-((3-oxo-1,3-dihydro-2H-pyrrolo[3,4-c]pyridin-2-yl)methyl)benzofuran-7-carboxylate] | 44 µM | 65 µM | –
CC(NC(=O)c1cnn2cccnc12)c1cc2cc(F)cc(C(=O)OCC(F)(F)F)c2o1 (single isomer, unassigned) [EXAMPLE 327, 2,2,2-Trifluoroethyl 5-fluoro-2-(1-(pyrazolo[1,5-a]pyrimidine-3-carboxamido)ethyl)benzofuran-7-carboxylate] | – | – | EC50 [1, 5]: 73 µM; EC50 [2, 6]: 79 µM
C[C@H](NC(=O)c1cnn2cccnc12)c1oc2c(C(=O)OCC(F)(F)F)cc(Cl)cc2c1Cl [EXAMPLE 297, 2,2,2-Trifluoroethyl (S)-3,5-dichloro-2-(1-(pyrazolo[1,5-a]pyrimidine-3-carboxamido)ethyl)benzofuran-7-carboxylate] | 3.1 µM | 3.2 µM | –
COC(=O)c1cc(Cl)cc2cc(CN3CCc4ccncc4C3=O)oc12 [Example 77, Methyl 5-chloro-2-((1-oxo-3,4-dihydro-2,7-naphthyridin-2(1H)-yl)methyl)benzofuran-7-carboxylate] | 5.5 µM | 6.3 µM | –
COC(=O)c1cc(F)cc2cc(C(C)NC(=O)c3cnn4cccnc34)oc12 (stereo not shown) [EXAMPLE 45, Methyl-5-fluoro-2-(1-(pyrazolo[1,5-a]pyrimidine-3-carboxamido)ethyl)benzofuran-7-carboxylate] | 0.98 µM | 0.99 µM | –
O=C(OCC(F)(F)F)c1cc(F)cc2cc(CNC(=O)c3cnn4cccnc34)oc12 [EXAMPLE 231, 2,2,2-Trifluoroethyl 5-fluoro-2-((pyrazolo[1,5-a]pyrimidine-3-carboxamido)methyl)benzofuran-7-carboxylate] | 0.5 µM | 0.65 µM | –
O=C(OCC1CC1)c1cccc2cc(CN3CCc4ccncc4C3=O)oc12 [EXAMPLE 354, Cyclopropylmethyl 2-((1-oxo-3,4-dihydro-2,7-naphthyridin-2(1H)-yl)methyl)benzofuran-7-carboxylate] | 46 µM | 70 µM | –
COC(=O)c1cc(F)cc2c(Cl)c([C@H](C)NC(=O)c3cnn4cccnc34)oc12 [EXAMPLE 111, Methyl (S)-3-chloro-5-fluoro-2-(1-(pyrazolo[1,5-a]pyrimidine-3-carboxamido)ethyl)benzofuran-7-carboxylate] | 1.2 µM | 1.4 µM | –
COC(=O)c1cc(Br)cc2cc(CN3Cc4ccncc4C3=O)oc12 [Example 82, Methyl 5-bromo-2-((3-oxo-1,3-dihydro-2H-pyrrolo[3,4-c]pyridin-2-yl)methyl)benzofuran-7-carboxylate] | 27 µM | 20 µM | –
CCn1cncc(C(=O)NCc2cc3cc(Cl)cc(C(=O)OC)c3o2)c1=O [Example 66, Methyl 5-chloro-2-((1-ethyl-6-oxo-1,6-dihydropyrimidine-5-carboxamido)methyl)benzofuran-7-carboxylate] | 28 µM | 33 µM | –
O=C(NCC(F)(F)F)c1cc(Cl)cc2cc(CNC(=O)c3cnn4cccnc34)oc12 [EXAMPLE 403, N-((5-Chloro-7-((2,2,2-trifluoroethyl)carbamoyl)benzofuran-2-yl)methyl)pyrazolo[1,5-a]pyrimidine-3-carboxamide] | > 100 µM | 97 µM | –
Cc1cnc2c(C(=O)NCc3cc4cccc(C(=O)OCC(F)(F)F)c4o3)cnn2c1 [EXAMPLE 220, 2,2,2-Trifluoroethyl 2-((6-methylpyrazolo[1,5-a]pyrimidine-3-carboxamido)methyl)benzofuran-7-carboxylate] | 3.8 µM | 4.8 µM | –
CSC(=O)c1cc(C)cc2c(Cl)c(CNC(=O)c3cnn4cccnc34)oc12 [EXAMPLE 397] | 0.46 µM | 0.47 µM | –
O=C(NCc1cc2cc(Cl)cc(C(=O)OCC(F)(F)F)c2o1)c1cnccn1 [EXAMPLE 373, 2,2,2-Trifluoroethyl 5-chloro-2-((pyrazine-2-carboxamido)methyl)benzofuran-7-carboxylate] | 3.9 µM | 3.9 µM | –
COC(=O)c1cc(Cl)cc2cc(CNC(=O)c3cnn4c(C)ccnc34)oc12 [Example 56, Methyl 5-chloro-2-((7-methylpyrazolo[1,5-a]pyrimidine-3-carboxamido)methyl) benzofuran-7-carboxylate] | – | – | EC50 [1, 5]: 30 µM; EC50 [2, 6]: > 33 µM
CSC(=O)c1cc(Cl)cc2cc([C@H](C)NC(=O)c3cnn4cccnc34)oc12 [EXAMPLE 401] | 1.9 µM | 1.9 µM | –
CSC(=O)c1cccc2cc(CNC(=O)c3cnccn3)oc12 [EXAMPLE 381, S-Methyl 2-((pyrazine-2-carboxamido)methyl)benzofuran-7-carbothioate] | 13 µM | 12 µM | –
COC(=O)c1ccc(F)c2cc(Cn3cnc4ccncc4c3=O)oc12 [EXAMPLE 25] | 10 µM | 15 µM | –
COC(OC(=O)c1cc(Cl)cc2cc(CNC(=O)c3cnn4cccnc34)oc12)C(F)(F)F (single isomer, unassigned) [EXAMPLE 331, 2,2,2-Trifluoro-1-methoxyethyl 5-chloro-2-((pyrazolo[1,5-a]pyrimidine-3-carboxamido)methyl)benzofuran-7-carboxylate] | 1.7 µM | 1.8 µM | –
CC(OC(=O)c1ccc(Cl)c2cc(CNC(=O)c3cnn4cccnc34)oc12)C(F)(F)F (stereo not shown) [EXAMPLE 312, 1,1,1-Trifluoropropan-2-yl 4-chloro-2-((pyrazolo[1,5-a]pyrimidine-3-carboxamido)methyl)benzofuran-7-carboxylate] | – | – | EC50 [1, 5]: 21 µM; EC50 [2, 6]: 56 µM
COc1cc(C(=O)OC(C)C(F)(F)F)c2oc(CNC(=O)c3cnn4cccnc34)cc2c1 (single isomer, unassigned) [EXAMPLE 345, 1,1,1-Trifluoropropan-2-yl 5-methoxy-2-((pyrazolo[1,5-a]pyrimidine-3-carboxamido)methyl)benzofuran-7-carboxylate] | 5.7 µM | 3.6 µM | –
COC(=O)c1cc(Cl)cc2c(C(F)(F)F)c(CNC(=O)c3cnn4cccnc34)oc12 [EXAMPLE 116, Methyl 5-chloro-2-((pyrazolo[1,5-a]pyrimidine-3-carboxamido)methyl)-3-(trifluoromethyl)benzofuran-7-carboxylate] | 2.9 µM | 3.1 µM | –
O=C(OCC(F)(F)F)c1cc(Cl)cc2cc(Cn3cnc4ccncc4c3=O)oc12 [EXAMPLE 371, 2,2,2-Trifluoroethyl 5-chloro-2-((4-oxopyrido[4,3-d]pyrimidin-3(4H)-yl)methyl)benzofuran-7-carboxylate] | 2.5 µM | 2.8 µM | –
O=C(OCCOCCO)c1cc(Cl)cc2cc(CNC(=O)c3cnn4cccnc34)oc12 [EXAMPLE 249, 2-(2-Hydroxyethoxy)ethy1 5-chloro-2-((pyrazolo[1,5-a]pyrimidine-3-carboxamido)methyl)benzofuran-7-carboxylate] | 2.4 µM | 2.5 µM | –
